Structures can show the parent of a compound that is named as a salt. Where two headings read alike, the source gives them in different places.
Assays:
serotonin transporter = target: T1, serotonin transporter (Rattus norvegicus, UniProt P31652); assay: 3H-paroxetine displacement, affinity for the serotonin transporter; assay type: binding
T1 construct: displace ^3H-paroxetine from male rat frontal cortical membranes; from tissue; host or cells: male rat frontal cortex membranes

human 5HT1A receptors = target: T2, human 5HT1A receptors (Homo sapiens, UniProt P08908); assay: [3H] 8-OH-DPAT displacement from the 5HT1A serotonin receptor (transfected CHO cells); assay type: binding
T2 construct: expressed in transfected cells; host or cells: CHO cells
T2 sequence (P08908 1-422): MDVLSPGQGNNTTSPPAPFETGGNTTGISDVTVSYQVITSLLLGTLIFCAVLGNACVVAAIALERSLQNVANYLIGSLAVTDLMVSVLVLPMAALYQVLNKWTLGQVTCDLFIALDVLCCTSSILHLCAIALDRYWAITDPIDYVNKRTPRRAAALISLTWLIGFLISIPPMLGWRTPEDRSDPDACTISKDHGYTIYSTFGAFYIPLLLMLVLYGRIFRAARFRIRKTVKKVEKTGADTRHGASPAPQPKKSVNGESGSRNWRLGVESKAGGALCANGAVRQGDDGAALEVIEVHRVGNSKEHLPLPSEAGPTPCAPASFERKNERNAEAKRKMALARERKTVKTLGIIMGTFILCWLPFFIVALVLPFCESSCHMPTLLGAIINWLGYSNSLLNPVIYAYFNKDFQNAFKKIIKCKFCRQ
From the text: High affinity for the serotonin 5HT1A receptor was established by testing the claimed compound's ability to displace [^3H] 8-OH-DPAT (dipropylamino-tetralin) from the 5HT1A serotonin receptor following a modification of the procedure of Hall et al., J. Neurochem. 44, 1685 (1985) which utilizes CHO cells stably transfected with human 5HT1A receptors.

[1] = target: T3, cloned human 5HT1A receptors (Homo sapiens, UniProt P08908); assay: 35S-GTPγS binding assay, antagonist activity at 5HT1A receptors; assay type: biochemical; settings: for IC50: 35S-GTPγS binding, reversal of the effects of the standard agonist 8-OH-DPAT, membranes with cloned human 5HT1A receptors, read-out: 5HT1A Function IC50; for Emax: maximum inhibitory effect in 35S-GTPγS binding versus 8-OH-DPAT, read-out: 5HT1A Function (Imax)
T3 construct: expressed in transfected cells
T3 sequence (P08908 1-422): T2 sequence (P08908 1-422)
Experimental: Antagonist activity at 5HT1A receptors was established by using a ^35S-GTPγS binding assay similar to that used by Lazareno and Birdsall (Br. J. Pharmacol. 109: 1120, 1993), in which the test compound's ability to affect the binding of 35S-GTPγS to membranes containing cloned human 5HT1A receptors was determined. Agonists produce an increase in binding whereas antagonists produce no increase but rather reverse the effects of the standard agonist 8-OH-DPAT. The test compound's maximum inhibitory effect is represented as the 1max, while its potency is defined by the IC50.

[2] = displacement of [3H] 8-OH-DPAT, CHO cells stably transfected with human 5HT1A receptors, read-out: 5HT1A Receptor Affinity KI

T1 sequence (P31652 whole entry): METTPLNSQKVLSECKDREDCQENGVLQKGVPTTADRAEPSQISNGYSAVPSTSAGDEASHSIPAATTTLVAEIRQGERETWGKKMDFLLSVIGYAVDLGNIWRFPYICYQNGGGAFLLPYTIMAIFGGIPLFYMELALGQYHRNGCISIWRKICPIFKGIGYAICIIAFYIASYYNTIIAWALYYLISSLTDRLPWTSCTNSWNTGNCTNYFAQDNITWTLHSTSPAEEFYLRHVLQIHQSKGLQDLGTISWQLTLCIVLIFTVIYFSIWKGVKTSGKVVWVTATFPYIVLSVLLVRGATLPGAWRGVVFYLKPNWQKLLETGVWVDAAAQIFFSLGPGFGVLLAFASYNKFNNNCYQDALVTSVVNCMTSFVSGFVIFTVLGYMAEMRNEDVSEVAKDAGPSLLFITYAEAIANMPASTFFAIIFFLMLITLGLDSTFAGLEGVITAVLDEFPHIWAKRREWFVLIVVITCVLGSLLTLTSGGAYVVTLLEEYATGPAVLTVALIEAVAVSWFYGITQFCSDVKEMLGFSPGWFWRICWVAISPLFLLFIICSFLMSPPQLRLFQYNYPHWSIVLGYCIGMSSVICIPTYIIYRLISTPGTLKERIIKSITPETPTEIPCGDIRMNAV

Row | Structure (SMILES) | melting point [°C] | Ki (serotonin transporter; displacement of 3H-paroxetine from male rat frontal cortical membranes, read-out: 5-HT Transporter Affinity KI) [nM] | Ki (human 5HT1A receptors; [2]) [nM] | Ki (serotonin transporter) [nM] | Ki (human 5HT1A receptors) [nM] | IC50 [1] [nM] | Emax [1] [%]
1 | N#Cc1ccc2[nH]cc(C3=CCN(CC4COc5ccc6ncccc6c5O4)CC3)c2c1 (stereo not drawn) (as salt: fumarate) [Example 5, 3-[1-(2,3-Dihydro[1,4]dioxino[2,3-f]quinolin-2-ylmethyl)-1,2,3,6-tetrahydropyridin-4-yl]-1H-indole-5-carbonitrile] | 159 to 161 | – | – | – | – | – | –
2 | COc1cc2c(c3cccnc13)O[C@@H](CN1CC=C(c3c[nH]c4ccc(F)cc34)CC1)CO2 (as salt: fumarate) [Example 17, 2-[4-(5-Fluoro-1H-indol-3-yl)-3,6-dihydro-2H-pyridin-1-ylmethyl]-6-methoxy-2,3-dihydro[1,4]dioxino[2,3-f]qiuinoline] | 217 | – | – | – | – | – | –
3 | Cc1ccc2c3c(ccc2n1)OCC(CN1CC=C(c2c[nH]c4cc(F)ccc24)CC1)O3 (stereo not drawn) (as salt: oxalate) (hydrate or solvate) [Example 10, 2-[4-(6-Fluoro-1H-indol-3-yl)-3,6-dihydro-2H-pyridin-1-ylmethyl]-8-methyl-2,3-dihydro[1,4]dioxino[2,3-f]quinoline] | 140 to 143 | – | – | – | – | – | –
4 | Fc1ccc2[nH]cc(CC3CCN(C[C@H]4COc5ccc6ncccc6c5O4)CC3)c2c1 (as salt: oxalate) [Example 3] | 184 | – | – | – | – | – | –
5 | Fc1ccc2[nH]cc(C3=CCN(C[C@H]4COc5ccc6ncccc6c5O4)CC3)c2c1 (hydrate or solvate) [Example 2] | 184 | – | – | – | – | – | –
6 | C1=C(c2c[nH]c3ccccc23)CCN(C[C@H]2COc3ccc4ncccc4c3O2)C1 (hydrate or solvate) [Example 4, 2-[1,4-(1H-indol-3-yl)-3,6-dihydro-2H-pyridin-1-ylmethyl]-2,3-dihydro[1,4]dioxino[2,3-f]quinoline] | 217 | – | – | – | – | – | –
7 | Cc1ccc2c3c(ccc2n1)OCC(CN1CCC(Cc2c[nH]c4ccc(F)cc24)CC1)O3 (stereo not drawn) [Example 8, 2-({4-[(5-Fluoro-1H-indol-3-yl)methyl]piperidin-1-yl}methyl)-8-methyl-2,3-dihydro[1,4]dioxino[2,3-f]quinoline] | 91 to 92 | 2.56 | 7.24 | – | – | – | –
8 | Cc1ccc2c3c(ccc2n1)OCC(CN1CC=C(c2c[nH]c4ccccc24)CC1)O3 (stereo not drawn) [Example 9, 2-[4-(1H-Indol-3-yl)-3,6-dihydro-2H-yridin-1-ylmethyl]-8-methyl-2,3-dihydro[1,4]dioxino[2,3-f]quinoline] | 210 | – | – | 2.34 | 3.02 | 56.7 | 98.3
9 | CCc1ccc2c3c(ccc2n1)OCC(CN1CC=C(c2c[nH]c4ccccc24)CC1)O3 (stereo not drawn) [Example 13, 8-Ethyl-2-[(4-(1H-indol-3-yl)-3,6-dihydropyridin-1(2H)-yl)methyl]-2,3-dihydro[1,4]dioxino[2,3-f]quinoline] | 190 | – | – | 4.9 | 6.82 | 162 | 88.7
10 | Fc1cc2c(c3cccnc13)OC(CN1CC=C(c3c[nH]c4ccccc34)CC1)CO2 (stereo not drawn) [Example 16, 6-Fluoro-2-[4-(1H-indol-3-yl)-3,6-dihydro-2H-pyridin-1-ylmethyl]-2,3-dihydro[1,4]dioxino[2,3-f]quinoline] | 215 | – | 55.9 | 21 | – | – | –
11 | Cc1ccc2c3c(ccc2n1)OC[C@H](CN1CC=C(c2c[nH]c4c(F)cccc24)CC1)O3 [Example 21] | 205 to 221 | – | – | 2.94 | 7.75 | 51.7 | 100
12 | Cc1cnc2ccc3c(c2c1)OC(CN1CC=C(c2c[nH]c4ccccc24)CC1)CO3 (stereo not drawn) [Example 23, 2-[4-(1H-Indol-3-yl)-3,6-dihydro-2H-pyridin-1-ylmethyl]-9-methyl-2,3-dihydro[1,4]dioxino[2,3-f]quinoline] | 211 to 213 | – | 7.76 | 28 | – | – | –
